This note sets out measurements from PMC4337988 (Science (New York, N.Y.), 2014).

Molecules are shown by their SMILES.

For one experiment, the target named is BcPyrR ([Bacillus] caldolyticus, UniProt P41007). Nature of the experiment: SEC-MALS. Type of experiment: binding. The conditions noted are these: 50 mM Tris pH 7.5, 150 mM NaCl, 1 mM DTT, room temperature; allosteric.
The next experiment concerns the target BsPyrR (Bacillus subtilis, UniProt P39765). Nature of the experiment: SEC-MALS. Type of experiment: binding. The conditions noted are these: 50 mM Tris pH 7.5, 150 mM NaCl, 1 mM DTT, room temperature; allosteric.

Chain of BcPyrR (P41007 whole entry): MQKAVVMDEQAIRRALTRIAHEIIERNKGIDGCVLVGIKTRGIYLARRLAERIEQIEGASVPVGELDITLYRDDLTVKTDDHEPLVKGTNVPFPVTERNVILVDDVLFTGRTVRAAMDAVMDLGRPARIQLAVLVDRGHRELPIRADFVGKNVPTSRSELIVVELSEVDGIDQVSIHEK
Chain of BsPyrR (P39765 whole entry): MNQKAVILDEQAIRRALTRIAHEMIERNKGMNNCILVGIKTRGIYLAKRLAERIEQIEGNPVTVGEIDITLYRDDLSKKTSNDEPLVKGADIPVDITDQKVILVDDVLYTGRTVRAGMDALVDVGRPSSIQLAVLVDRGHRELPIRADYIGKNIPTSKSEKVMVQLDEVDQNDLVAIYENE

Regarding `Nc1nc2c(ncn2[C@@H]2O[C@H](COP(=O)(O)O)[C@@H](O)[C@H]2O)c(=O)[nH]1` [GMP], on BcPyrR, the “SEC-MALS (oligomeric state shift)” value was “We analysed the oligomeric state of BsPyrR and BcPyrR by SEC-MALS upon addition of allosteric ligands”.
In the case of `O=c1ccn([C@@H]2O[C@H](COP(=O)(O)O)[C@@H](O)[C@H]2O)c(=O)[nH]1` [UMP], the “SEC-MALS (oligomeric state shift)” value at BsPyrR was “both UMP and GMP stabilize the tetrameric state of PyrR”; on BcPyrR it was “both UMP and GMP stabilize the tetrameric state of PyrR”.
